Consider 13 compounds from US12084437B2, “Halo-substituted piperidines as orexin receptor modulators” (AstraZeneca AB, priority 2016, dated 2024).

SMILES strings stand for the structures.

The IC50 is the midpoint of a concentration-inhibition curve.

The target in assay [1] is T1, OX1 (Homo sapiens, UniProt O43613).
T1 construct: expressed in transfected cells; host or cells: CHO (CHO-OX1)
T1 sequence (O43613 1-425): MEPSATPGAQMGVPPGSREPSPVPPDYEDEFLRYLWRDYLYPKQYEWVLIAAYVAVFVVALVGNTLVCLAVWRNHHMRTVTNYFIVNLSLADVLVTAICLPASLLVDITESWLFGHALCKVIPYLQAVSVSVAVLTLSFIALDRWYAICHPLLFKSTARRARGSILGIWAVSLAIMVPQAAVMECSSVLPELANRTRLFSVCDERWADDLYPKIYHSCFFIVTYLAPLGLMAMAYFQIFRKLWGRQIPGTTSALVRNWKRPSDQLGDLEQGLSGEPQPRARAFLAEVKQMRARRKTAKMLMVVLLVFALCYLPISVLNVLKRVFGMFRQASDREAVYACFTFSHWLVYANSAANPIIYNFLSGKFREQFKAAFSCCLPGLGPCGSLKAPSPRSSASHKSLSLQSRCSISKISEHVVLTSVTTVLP
In words: Orexin receptor cell-based functional assay, [Ca2+]i by FLIPR, CHO-OX1 cells. Conditions: FLIPR calcium, antagonism of EC90 of [OX], read-out: OXI, IC50.

The target of assay [2] is T2, OX2 (Homo sapiens, UniProt O43614).
T2 construct: expressed in transfected cells; host or cells: CHO (CHO-OX2)
T2 sequence (O43614 1-444): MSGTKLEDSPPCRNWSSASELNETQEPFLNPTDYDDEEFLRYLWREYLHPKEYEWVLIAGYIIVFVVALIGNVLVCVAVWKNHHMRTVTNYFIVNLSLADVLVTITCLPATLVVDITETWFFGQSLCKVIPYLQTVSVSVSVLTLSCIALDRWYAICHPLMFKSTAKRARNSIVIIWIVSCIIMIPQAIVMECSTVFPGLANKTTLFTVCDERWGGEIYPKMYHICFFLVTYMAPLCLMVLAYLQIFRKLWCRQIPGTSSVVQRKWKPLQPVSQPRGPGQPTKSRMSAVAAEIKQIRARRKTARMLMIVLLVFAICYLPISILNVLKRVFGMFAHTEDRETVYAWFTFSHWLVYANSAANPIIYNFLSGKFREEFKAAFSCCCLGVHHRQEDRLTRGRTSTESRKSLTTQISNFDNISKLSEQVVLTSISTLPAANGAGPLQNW
The assay is described as follows: Orexin receptor cell-based functional assay, [Ca2+]i by FLIPR, CHO-OX2 cells. Conditions: FLIPR calcium, antagonism of EC90 of [OX]. Put shortly:
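CHO cells expressing human OX1 or OX2 (20,000/well, grown overnight) were loaded with Calcium6 dye plus 2.5 mM probenecid for 2 h at 37 °C, then preincubated 30 min with compound (0.1 nM–10 µM). FLIPR fluorescence (ex 488/em 540 nm) was tracked before and after an EC90 orexin challenge.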

Regarding `C[C@@H]1CC(F)(F)CN(C(=O)c2nn(CC(F)(F)F)cc2-c2ncccn2)[C@@H]1CNc1ncc(C(F)(F)F)cn1` [Compound 238, ((2S,3R)-5,5-difluoro-3-methyl-2-(((5-(trifluoromethyl)pyrimidin-2-yl)amino)methyl)piperidin-1-yl)(4-(pyrimidin-2-yl)-1-(2,2,2-trifluoroethyl)-1H-pyrazol-3-yl)methanone], the 50% inhibitory concentration (IC50) is above 2000 nM in assay [1] and above 5000 nM in assay [2].

Regarding `CCc1cnc(NC[C@@H]2[C@H](C)CC(F)(F)CN2C(=O)c2nc(C)sc2-c2ccc(F)cc2)nc1` [Compound 239, ((2S,3R)-2-(((5-ethylpyrimidin-2-yl)amino)methyl)-5,5-difluoro-3-methylpiperidin-1-yl)(5-(4-fluorophenyl)-2-methylthiazol-4-yl)methanone], the IC50 in assay [1] was 29 nM; in assay [2], above 5000 nM.

For the compound `Cc1ccc(-c2nnn(C)n2)c(C(=O)N2CC(F)(F)C[C@@H](C)[C@H]2CNc2ncc(C(F)(F)F)cn2)n1` [Compound 240, ((2S,3R)-5,5-difluoro-3-methyl-2-(((5-(trifluoromethyl)pyrimidin-2-yl)amino)methyl)piperidin-1-yl)(6-methyl-3-(2-methyl-2H-tetrazol-5-yl)pyridin-2-yl)methanone], the IC50 in assay [1] is 29 nM; in assay [2], above 5000 nM.

On to `C[C@@H]1CC(F)(F)CN(C(=O)c2nn(C)cc2-c2ccncn2)[C@@H]1CNc1ncc(C(F)(F)F)cn1` [Compound 241, ((2S,3R)-5,5-difluoro-3-methyl-2-(((5-(trifluoromethyl)pyrimidin-2-yl)amino)methyl)piperidin-1-yl)(1-methyl-4-(pyrimidin-4-yl)-1H-pyrazol-3-yl)methanone], for which the IC50 in assay [1] was above 1000 nM; in assay [2], above 5000 nM.

Turning to `C[C@@H]1CC(F)(F)CN(C(=O)c2nn(C)cc2-c2ncc(F)cn2)[C@@H]1CNc1ncc(C(F)(F)F)cc1F` [Compound 242, ((2S,3R)-5,5-difluoro-2-(((3-fluoro-5-(trifluoromethyl)pyridin-2-yl)amino)methyl)-3-methylpiperidin-1-yl)(4-(5-fluoropyrimidin-2-yl)-1-methyl-1H-pyrazol-3-yl)methanone], the values for the IC50 in assay [1] and in assay [2] were 5 nM and above 5000 nM, respectively.

In the case of `C[C@@H]1CC(F)(F)CN(C(=O)c2nn(C)cc2-c2ncc(F)cn2)[C@@H]1COc1ncc(C(F)(F)F)cn1` [Compound 246], the values for the 50% inhibitory concentration (IC50) in assay [1] and in assay [2] were 4820 nM and above 5000 nM, respectively.

Consider `C[C@@H]1CC(F)(F)CN(C(=O)c2nn(C)cc2-c2ncccn2)[C@@H]1COc1ncc(C(F)(F)F)cc1F` [Compound 247], for which the concentration for half-maximal inhibition (IC50) was 437 nM in assay [1] and above 5000 nM in assay [2].

On to `C[C@@H]1CC(F)(F)CN(C(=O)c2nn(C)cc2-c2ncc(F)cn2)[C@@H]1COc1ccc(C(F)(F)F)cn1` [Compound 248], for which the results for the IC50 in assay [1] and in assay [2] were 50 nM and above 5000 nM, respectively.

Take `C[C@@H]1CC(F)(F)CN(C(=O)c2nn(C)nc2-c2ccc(Cl)cn2)[C@@H]1CNc1ncc(C(F)(F)F)cn1` [Compound 249]: the half-inhibitory concentration (IC50) in assay [1] is 8 nM; in assay [2] it was above 5000 nM.

Turning to `C[C@@H]1CC(F)(F)CN(C(=O)c2cc(F)ccc2-c2nnn(C)n2)[C@@H]1CNc1ncc(C(F)(F)F)cn1` [Compound 252, ((2S,3R)-5,5-difluoro-3-methyl-2-(((5-(trifluoromethyl)pyrimidin-2-yl)amino)methyl)piperidin-1-yl)(5-fluoro-2-(2-methyl-2H-tetrazol-5-yl)phenyl)methanone], the results for the IC50 in assay [1] and in assay [2] were 8 nM and above 5000 nM, respectively.

On to `C[C@@H]1CC(F)(F)CN(C(=O)c2cn(C)nc2-c2ccccc2)[C@@H]1CNc1ncc(Cl)cn1` [Compound 254], for which the IC50 in assay [1] was 70 nM; in assay [2], above 5000 nM.

For the compound `C[C@@H]1CC(F)(F)CN(C(=O)c2nn(C)cc2-c2ncc(F)cn2)[C@@H]1CN(C)c1ncc(C(F)(F)F)cn1` [Compound 263], the IC50 in assay [1] is 57 nM; in assay [2], above 5000 nM.

Turning to `Cc1c(-c2ncc(F)cn2)c(C(=O)N2CC(F)(F)C[C@@H](C)[C@H]2CNc2ncc(C(F)(F)F)cn2)nn1C` [Compound 264, ((2S,3R)-5,5-difluoro-3-methyl-2-(((5-(trifluoromethyl)pyrimidin-2-yl)amino)methyl)piperidin-1-yl)(4-(5-fluoropyrimidin-2-yl)-1,5-dimethyl-1H-pyrazol-3-yl)methanone], the IC50 in assay [1] is 3 nM; in assay [2], above 5000 nM.
